Experiments:
[1] = molecular target: CtermHisTag-mEGFR Triple Mutant - C797S, L858R, T790M (Homo sapiens, UniProt P00533, C797S/L858R/T790M); test: TR-FRET probe displacement assay, EGFR triple mutant; format: binding; conditions: T790M 1.25 nM, probe 100 nM, 30 mins room temperature
Procedure, shortened: (§1)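 Probe displacement from His-tagged wild-type or triple-mutant EGFR measured by TR-FRET (excitation 337 nm, emission 490/520 nm). Compounds spanned final concentrations from 3 to 100000 nM over ten points; technical replicates, repeated twice biologically.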

[2] = molecular target: CtermHisTag-mEGFR Wild type (Homo sapiens, UniProt P00533); test: TR-FRET probe displacement assay, EGFR wild type; format: binding; conditions: EGFR wild type 1.25 nM, probe 100 nM, 30 mins room temperature
Procedure, shortened: as §1

[3] = molecular target: T1, Phospho-EGFR (Tyr1068) in H1975 cells (Homo sapiens, UniProt P00533, L858R/T790M); test: HTRF pEGFR/total EGFR assay in H1975 cells; format: cell-based; conditions: compound 3 hours, ratio pEGFR/total EGFR
T1 construct: host or cells: H1975
Procedure, shortened: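 H1975 cells (EGFR L858R/T790M) adhered 24 h, then compound-treated for 3 h in duplicate, 0.1% DMSO final. Lysates read by HTRF at 665/620 nm for phospho-Tyr1068 and total EGFR. Value is pEGFR/total EGFR ratio as % of 0 uM control.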

[4] = molecular target: T2, Phospho-EGFR (Tyr1068) in H1975 C797S cells (Homo sapiens, UniProt P00533, C797S/L858R/T790M); test: HTRF pEGFR/total EGFR assay in H1975 C797S cells; format: cell-based; conditions: H1975 C797S cells (CRISPR), compound 3 hours, ratio pEGFR/total EGFR
T2 construct: endogenous in cells; host or cells: H1975 C797S (CRISPR-edited in house from ATCC CRL-5908)
Procedure, shortened: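 Phospho-EGFR (Tyr1068) and total EGFR were measured by HTRF (665 and 620 nm) in lysates of NGS-validated H1975 EGFR C797S cells. Cells were dosed for 3 h in duplicate, 0.1% DMSO final. Read-out is the pEGFR/total EGFR ratio relative to the 0 uM control, as percent.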

[5] = molecular target: T3, Phospho-EGFR (Tyr1068) in A431 cells (Homo sapiens, UniProt P00533); test: HTRF pEGFR/total EGFR assay in A431 cells (EGF stimulated); format: cell-based; conditions: compound 2.5 hours then 100 ng/ml EGF 30 mins, ratio pEGFR/total EGFR
T3 construct: endogenous in cells; host or cells: A431
Procedure, shortened: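 HTRF readout (665 and 620 nm) of Tyr1068-phosphorylated versus total EGFR in lysed A431 cells, expressed as ratio relative to 0uM control (%). Compound exposure 2.5 h in duplicate at 0.1% DMSO, with 100 ng/ml EGF added for 30 min.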

T1 sequence (P00533 25-1210 T790M/L858R): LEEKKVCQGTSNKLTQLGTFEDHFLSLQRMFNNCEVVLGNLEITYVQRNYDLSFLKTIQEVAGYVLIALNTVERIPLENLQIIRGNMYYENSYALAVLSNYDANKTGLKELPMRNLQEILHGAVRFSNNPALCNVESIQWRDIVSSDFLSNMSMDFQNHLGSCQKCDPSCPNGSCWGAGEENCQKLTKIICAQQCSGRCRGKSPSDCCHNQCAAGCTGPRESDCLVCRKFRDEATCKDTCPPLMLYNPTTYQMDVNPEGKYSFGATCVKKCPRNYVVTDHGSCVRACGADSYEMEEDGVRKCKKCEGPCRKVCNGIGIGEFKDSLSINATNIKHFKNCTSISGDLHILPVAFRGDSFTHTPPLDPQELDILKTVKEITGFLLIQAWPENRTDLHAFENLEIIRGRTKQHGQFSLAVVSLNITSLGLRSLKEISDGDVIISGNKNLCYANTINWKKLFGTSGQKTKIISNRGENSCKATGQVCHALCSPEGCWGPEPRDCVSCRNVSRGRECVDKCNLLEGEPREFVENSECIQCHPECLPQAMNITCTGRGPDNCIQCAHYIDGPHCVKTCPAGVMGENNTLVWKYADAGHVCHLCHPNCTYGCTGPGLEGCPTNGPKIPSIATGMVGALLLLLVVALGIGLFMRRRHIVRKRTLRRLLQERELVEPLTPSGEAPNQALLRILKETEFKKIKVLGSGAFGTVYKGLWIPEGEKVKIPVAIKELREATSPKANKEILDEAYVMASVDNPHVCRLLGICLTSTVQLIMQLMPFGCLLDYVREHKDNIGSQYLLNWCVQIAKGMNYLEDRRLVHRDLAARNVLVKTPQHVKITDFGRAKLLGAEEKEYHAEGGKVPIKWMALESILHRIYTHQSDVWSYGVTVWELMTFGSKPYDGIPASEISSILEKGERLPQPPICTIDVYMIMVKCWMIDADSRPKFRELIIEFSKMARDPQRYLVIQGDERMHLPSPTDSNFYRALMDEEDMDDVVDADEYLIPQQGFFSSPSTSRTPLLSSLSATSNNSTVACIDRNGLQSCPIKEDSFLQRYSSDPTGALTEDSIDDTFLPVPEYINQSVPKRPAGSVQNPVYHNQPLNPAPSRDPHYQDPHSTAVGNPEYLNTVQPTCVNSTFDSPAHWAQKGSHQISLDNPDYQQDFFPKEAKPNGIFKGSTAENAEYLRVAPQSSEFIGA
Sequence of CtermHisTag-mEGFR Triple Mutant - C797S, L858R, T790M (P00533 25-1210 T790M/C797S/L858R): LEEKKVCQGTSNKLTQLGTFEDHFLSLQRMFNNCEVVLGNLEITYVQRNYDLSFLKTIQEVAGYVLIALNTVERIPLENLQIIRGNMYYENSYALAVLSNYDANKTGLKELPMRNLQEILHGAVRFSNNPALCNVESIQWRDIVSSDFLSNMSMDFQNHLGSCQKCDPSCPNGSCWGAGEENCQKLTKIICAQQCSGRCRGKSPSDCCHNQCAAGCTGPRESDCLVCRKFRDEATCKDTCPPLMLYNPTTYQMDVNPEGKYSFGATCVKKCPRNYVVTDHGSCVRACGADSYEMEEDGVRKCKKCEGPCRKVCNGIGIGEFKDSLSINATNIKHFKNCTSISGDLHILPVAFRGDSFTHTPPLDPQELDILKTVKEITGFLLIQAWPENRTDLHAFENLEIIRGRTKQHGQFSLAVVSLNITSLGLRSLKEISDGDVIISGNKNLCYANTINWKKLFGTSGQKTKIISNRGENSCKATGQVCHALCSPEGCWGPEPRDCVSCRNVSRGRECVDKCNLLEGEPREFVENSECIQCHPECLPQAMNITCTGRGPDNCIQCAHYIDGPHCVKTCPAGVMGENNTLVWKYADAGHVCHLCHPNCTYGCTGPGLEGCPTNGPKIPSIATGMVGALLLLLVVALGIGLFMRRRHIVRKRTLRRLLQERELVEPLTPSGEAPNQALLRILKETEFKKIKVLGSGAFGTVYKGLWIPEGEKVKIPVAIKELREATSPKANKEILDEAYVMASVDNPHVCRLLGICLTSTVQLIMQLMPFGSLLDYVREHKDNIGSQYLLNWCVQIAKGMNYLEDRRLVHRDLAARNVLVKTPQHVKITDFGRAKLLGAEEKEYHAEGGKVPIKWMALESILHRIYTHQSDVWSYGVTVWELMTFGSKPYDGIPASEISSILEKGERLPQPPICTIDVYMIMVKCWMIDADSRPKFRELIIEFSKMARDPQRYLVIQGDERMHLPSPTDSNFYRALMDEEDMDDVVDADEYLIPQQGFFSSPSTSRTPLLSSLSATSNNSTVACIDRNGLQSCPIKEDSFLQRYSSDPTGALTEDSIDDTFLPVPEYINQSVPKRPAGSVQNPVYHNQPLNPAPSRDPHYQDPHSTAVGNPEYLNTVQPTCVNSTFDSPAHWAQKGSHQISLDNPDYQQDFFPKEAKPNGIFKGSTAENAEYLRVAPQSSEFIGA
T2 sequence (P00533 25-1210 T790M/C797S/L858R): as above
T3 sequence (P00533 25-1210): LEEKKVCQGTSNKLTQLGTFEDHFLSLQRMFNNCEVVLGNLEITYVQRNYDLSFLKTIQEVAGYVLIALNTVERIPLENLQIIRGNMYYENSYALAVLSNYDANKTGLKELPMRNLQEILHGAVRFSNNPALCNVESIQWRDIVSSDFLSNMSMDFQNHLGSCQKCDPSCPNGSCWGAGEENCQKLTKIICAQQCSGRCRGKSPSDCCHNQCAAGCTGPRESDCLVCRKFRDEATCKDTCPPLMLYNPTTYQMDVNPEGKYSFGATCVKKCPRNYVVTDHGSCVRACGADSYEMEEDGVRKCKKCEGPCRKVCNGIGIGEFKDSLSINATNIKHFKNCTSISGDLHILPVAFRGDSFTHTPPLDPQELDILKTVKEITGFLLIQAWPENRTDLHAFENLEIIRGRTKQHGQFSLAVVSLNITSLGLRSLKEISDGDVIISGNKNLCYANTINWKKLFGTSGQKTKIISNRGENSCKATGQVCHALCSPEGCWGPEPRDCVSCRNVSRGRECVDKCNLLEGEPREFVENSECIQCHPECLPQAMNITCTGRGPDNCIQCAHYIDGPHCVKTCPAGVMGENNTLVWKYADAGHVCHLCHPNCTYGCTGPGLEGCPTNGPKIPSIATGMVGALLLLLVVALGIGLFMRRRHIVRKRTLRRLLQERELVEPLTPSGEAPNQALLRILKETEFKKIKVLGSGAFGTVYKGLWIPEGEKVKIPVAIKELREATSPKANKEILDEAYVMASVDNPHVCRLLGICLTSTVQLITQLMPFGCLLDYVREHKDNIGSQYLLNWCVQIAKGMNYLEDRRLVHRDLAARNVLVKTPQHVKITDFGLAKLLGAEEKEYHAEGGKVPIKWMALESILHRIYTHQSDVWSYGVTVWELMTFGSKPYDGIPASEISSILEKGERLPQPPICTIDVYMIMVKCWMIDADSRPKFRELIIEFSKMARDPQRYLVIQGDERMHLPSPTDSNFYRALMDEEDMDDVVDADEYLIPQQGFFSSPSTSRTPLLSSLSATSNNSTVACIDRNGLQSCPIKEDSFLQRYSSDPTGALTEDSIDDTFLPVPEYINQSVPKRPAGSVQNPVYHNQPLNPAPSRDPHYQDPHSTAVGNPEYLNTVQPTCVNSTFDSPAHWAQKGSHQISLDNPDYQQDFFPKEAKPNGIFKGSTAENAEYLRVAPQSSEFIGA

Row | IC50 [1] [µM] | IC50 [2] [µM] | IC50 [3] [µM] | IC50 [4] [µM] | IC50 [5] [µM] | SMILES
1 | 1 to 50 | > 10 | > 3 | > 3 | > 3 | C#Cc1cc(N(C)C(=O)N(C)C2CCCC2)nc2nc(Nc3ccc(N4CCN(C)CC4)cc3)ncc12 [Example 123, 3-Cyclopentyl-1-(5-ethynyl-2-{[4-(4-methylpiperazin-1-yl)phenyl]amino}pyrido[2,3-d]pyrimidin-7-yl)-1,3-dimethylurea]
2 | < 0.02 | < 1 | < 0.5 | < 0.5 | > 3 | C#Cc1cc(NC(=O)NC2CCCC2)nc2nc(Nc3ccc(S(=O)(=O)N(C)CCN(C)C)cc3)ncc12 [Example 84]

The next lines start with the compound.

Row | SMILES | IC50 [1] [µM] | IC50 [2] [µM] | IC50 [3] [µM] | IC50 [4] [µM] | IC50 [5] [µM]
3 | C#Cc1cc(Nc2nccn2C)nc2nc(Nc3ccc(N4CCN(C)CC4)cc3)ncc12 [Example 26, 5-ethynyl-N^7-(1-methylmidazol-2-yl)-N^2-[4-(4-methylpiperazin-1-yl)phenyl]pyrido[2,3-d]pyrimidine-2,7-diamine] | 0.02 to 0.1 | 1 to 10 | 0.5 to 1 | 1 to 3 | > 3
4 | C#Cc1cc(OC)nc2nc(Nc3ccc(N4CCN(C)CC4)c(N(C)C)c3)ncc12 [Example 5, N^3-{5-ethynyl-7-methoxypyrido[2,3-d]pyrimidin-2-yl}-N^1,N^1-dimethyl-6-(4-methylpiperazin-1-yl)benzene-1,3-diamine] | 0.1 to 1 | > 10 | > 3 | > 3 | > 3
5 | C#Cc1cc(OC)nc2nc(Nc3cccc(CN(C)C)c3)ncc12 [Example 9, N-{3-[(dimethylamino)methyl]phenyl}-5-ethynyl-7-methoxypyrido[2,3-d] pyrimidin-2-amine] | 0.1 to 1 | > 10 | > 3 | > 3 | > 3
